Columns and labels:
B16 [1] = assay: In vitro inhibitory activity against B16 murine melanoma cells; type: functional, cell-based; details: Mus musculus
HL-60 [2] = assay: In vitro inhibitory activity against HL-60 human promyelocytic leukemia cells until a maximum concentration of 4*(10e-3) M; a = inactive until a maximum tested concentration of 4*(10e-3) M; type: functional, cell-based
L1210 [3] = assay: In vitro inhibitory activity against L1210 murine lymphocytic leukemia cells; a = inactive until a maximum tested concentration of 4*(10e-3) M; type: functional, cell-based, Mus musculus
P388 [4] = assay: In vitro inhibitory activity against P388 murine lymphocytic leukemia cells; a = inactive until a maximum tested concentration of 4*(10e-3) M; type: functional, cell-based, Mus musculus
L1210 [5] = assay: In vitro inhibitory activity against L1210 murine lymphocytic leukemia cells; b = inactive until a maximum tested concentration of […]; type: functional, cell-based, Mus musculus
P388 [6] = assay: In vitro inhibitory activity against P388 murine lymphocytic leukemia cells; b = inactive until a maximum tested concentration of 2.5(10e-4) M
HL-60 [7] = assay: In vitro inhibitory activity against HL-60 human promyelocytic leukemia cells; b = inactive until a maximum tested concentration of […]; type: functional, cell-based
B16 [8] = assay: In vitro inhibitory activity against B16 murine melanoma cells; b = inactive until a maximum tested concentration of […]; type: functional, cell-based, Mus musculus
L1210 [9] = assay: In vitro inhibitory activity against L1210 murine lymphocytic leukemia cells; type: functional, cell-based; details: Mus musculus
HL-60 [10] = assay: In vitro inhibitory activity against HL-60 human promyelocytic leukemia cells; type: functional, cell-based
P388 [11] = assay: In vitro inhibitory activity against P388 murine lymphocytic leukemia cells; type: functional, cell-based; details: Mus musculus

Row | IC50 (B16 [1]) | IC50 (HL-60 [2]) | IC50 (L1210 [3]) | IC50 (P388 [4]) | IC50 (L1210 [5]) | IC50 (P388 [6]) | IC50 (HL-60 [7]) | IC50 (B16 [8]) | IC50 (L1210 [9]) | IC50 (HL-60 [10]) | IC50 (P388 [11]) | Compound
1 | 3020 µM | Inactive until max test conc 4x10^-3M | Inactive until max test conc 4x10^-3M | Inactive until max test conc 4x10^-3M |  |  |  |  |  |  |  | NC(=O)c1coc([C@@H]2O[C@H](CO)[C@@H](O)[C@H]2O)n1
2 |  |  |  |  | Inactive until max test conc 2.5x10^-4M | Inactive until max test conc 2.5x10^-4M | Inactive until max test conc 2.5x10^-4M | Inactive until max test conc 2.5x10^-4M |  |  |  | NC(=O)c1nc(-c2ccc(CO)o2)oc1N
3 |  |  |  |  | Inactive until max test conc 2.5x10^-4M | Inactive until max test conc 2.5x10^-4M | Inactive until max test conc 2.5x10^-4M | Inactive until max test conc 2.5x10^-4M |  |  |  | NC(=O)c1coc(-c2ccc(CO)o2)n1
4 | 16.2 µM |  |  |  |  |  |  |  | 6.2 µM | 6.1 µM | 16.7 µM | NC(=O)c1csc([C@@H]2O[C@H](CO)[C@@H](O)[C@H]2O)n1 [TIAZOFURIN]

Source: ChEMBL document CHEMBL1125069, “Synthesis and antitumor activity of 2-beta-D-ribofuranosyloxazole-4-carboxamide (oxazofurin)” (J Med Chem, 1990)
